# Source: patent US7365049B2, “Afamin-containing compositions and methods of use” (Vitateg Biotechnology GmbH, priority 2001, dated 2008)
# Entries after “also recorded” stand apart in the source; their conditions may differ.
# T1: Afamin (Homo sapiens, UniProt P43652)
# T1 sequence (P43652 22-599): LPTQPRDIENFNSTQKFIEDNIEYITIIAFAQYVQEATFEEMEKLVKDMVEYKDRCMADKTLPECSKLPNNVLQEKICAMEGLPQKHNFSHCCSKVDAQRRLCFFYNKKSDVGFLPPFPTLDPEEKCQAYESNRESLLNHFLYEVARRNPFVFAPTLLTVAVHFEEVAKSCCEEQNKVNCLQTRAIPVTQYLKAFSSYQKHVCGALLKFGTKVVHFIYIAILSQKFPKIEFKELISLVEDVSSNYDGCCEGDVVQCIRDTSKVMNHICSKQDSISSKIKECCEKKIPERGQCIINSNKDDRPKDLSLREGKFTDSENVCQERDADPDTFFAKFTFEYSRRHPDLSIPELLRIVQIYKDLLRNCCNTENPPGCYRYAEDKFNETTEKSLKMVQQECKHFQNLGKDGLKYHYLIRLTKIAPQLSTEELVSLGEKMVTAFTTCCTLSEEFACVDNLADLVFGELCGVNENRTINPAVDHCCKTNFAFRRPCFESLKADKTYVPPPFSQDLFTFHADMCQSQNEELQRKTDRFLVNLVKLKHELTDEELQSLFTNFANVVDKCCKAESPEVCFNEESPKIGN
# B1: Afamin: 87 kDa protein which belongs to the albumin group; cloned and sequenced, also available in recombinant form (protein, UniProt P43652 22-599, looked up)
# Afamin: T1 sequence (P43652 22-599)
# Assays:
# [1] = test system: isolated cortical neurons of chicken embryos; assay: Low serum assay (2% serum), MTT viability of isolated cortical neurons; format: cell-based; conditions: partial serum withdrawal to 2%, FIG. 2a
# Protocol: (§1) The neuroprotective effect of Afamin was examined by assaying isolated cortical neurons of chicken embryos. The effect of Afamin was tested in a low-serum assay and in two lesion assays, namely in a β-amyloid and a H2O2-lesion assay.
# (§2) After the low serum assay or the lesion assay, the MTT assay is used to check the viability of neuronal cells (MTT=3-(4,5-dimethylthiazol-2-yl)-2,5-[…]). This is a suitable model which is extremely reproducible. The test also allows for assaying a large number of samples, and dose-dependent differences in the activity of a substance can be evaluated.
# (§3) The neuronal viability of cells in vitro can be determined by means of this […] MTT test. The MTT assay is based on the metabolic reduction of MTT, a substance of yellow color, to dark-blue formazane crystals by mitochondrial dehydrogenases (e.g. succinate dehydrogenase). The crystals are dissolved, and the spectrometric absorption is measured at a suitable wave length.
# (§4) In detail, isolated cortical neurons of 8- (lesion assays) or 9- (low serum assay) day-old chicken embryos (White Leghorn or Lohman Brown Hybrid strain) were used.
# (§5) The neurons were prepared by breaking ethanoltreated eggs and putting the embryos into a plastic dish. […]
# (§6) At the end of each experiment, the viability of the cultures was tested by means of the MTT assay with a plate reader at 570 nm.
# [2] = test system: isolated cortical neurons of chicken embryos; assay: β-amyloid lesion assay, MTT viability of isolated cortical neurons; format: cell-based; conditions: 20 μM pre-aggregated β-amyloid peptide (Aβ25-35) for 72 hours, FIG. 2c
# Protocol: as §1, §2, §3, §4, §5, §6
# [3] = test system: isolated cortical neurons of chicken embryos; assay: H2O2-lesion assay, MTT viability of isolated cortical neurons; format: cell-based; conditions: 100 μM H2O2 for 24 h, FIG. 2b
# Protocol: After the low serum assay or the lesion assay, the MTT assay is used to check the viability of neuronal cells (MTT=3-(4,5-dimethylthiazol-2-yl)-2,5-diphenyltriazolium bromide).
# The neuronal viability of cells in vitro can be determined by means of this calorimetric MTT test. The MTT assay is based on the metabolic reduction of MTT, a substance of yellow color, to dark-blue formazane crystals by mitochondrial dehydrogenases (e.g. succinate dehydrogenase). The crystals are dissolved, and the spectrometric absorption is measured at a suitable wave length.
# The neurons were prepared by breaking ethanoltreated eggs and putting the embryos into a plastic dish. After decapitation, the hemispheres were removed and collected. Loose tissue and meningial membranes were removed, and the hemispheres were mechanically dissociated.
# 80 μl cell suspension containing 6×10^5 cells/ml nutrient medium were added to each well of the microtiter plate which already contained 80 μl of medium with or without the substances. The plates were kept at 37° C., 95% humidity and 5% CO2 without a change of media (up to 8 DIV).
# The low serum medium contains 100 ml of DEMEM with 1 g of glucose/l, 2% fetal calf serum, 0.01% Gentamycin and 2 mM L-glutamine. The nutrient medium for the lesion assays contains 100 ml of DMEM with 4.5 g of glucose/l, 5% fetal calf serum, 0.01% gentamycin and 2 mM L-glutamine.
# At DIV 8, the cells were treated with 20 μM of pre-aggregated β-amyloid peptide (Aβ25-35; Sigma) for 72 hours, or with 100 μM H2O2 for 24 h.
# Afamin = molecular target: T1, Afamin; assay: Scatchard-plot analysis of the binding of vitamin E to Afamin; conditions: FIG. 3
# [4] = test system: glutamine synthetase (GS); assay: 3-NP-induced reduction of glutamine synthetase (GS) activity in brain spheroids; format: cell-based; conditions: 5-day treatment with 3-NP (0.5 and 5 mM), Afamin 0.3 and 3 μg/ml without vitamin E, FIG. 1
# From the text: Because of the mechanistic and pathological similarities between 3-NP lesions and Hungington's Disease (HD), 3-NP has been proposed as an alternative HD-model. Malonate and 3-NP are inhibitors of the succinate dehydrogenase which produce an energy loss and lesions which are similar to those observed in HD. Systemic administration of 3-NP causes a progressive locomotory deterioration which corresponds to that of HD.
# After the extraction of brain spheroids and a one-week culturing, D,L-alpha-tocopherol (0.1 mM) were added to the medium. Two weeks old spheroids were plated in a plate having six wells. Shortly after the exposure, the medium was replaced by 2 ml of fresh medium. The spheroids were exposed to 3-NP (0.5 and 5 mM, pH adjusted to 7 to 8), or to the protectors vitamin E (0.1 mM), glutathione (1 mM), DTT (0.25 mM), L-NAME (N(G)-nitro-L-[…]-methylester) (0.1 mM), Afamin (without vitamin E (0.3 and 3 μg/ml) or combinations of 3-NP with the protectors for 5 days. After 2 days, freshly prepared 3-NP and protectors were added to the medium (Mathews et al., J. Neurosci, 18(1) (1998), 156-163); Borlongan et al., Neurosci Biohav. Res. 21(3) (1997), 289-293).
# The results are illustrated in FIG. 1. […] As mentioned before, this system with 3NP constitutes a recognized model for excitotoxicity and serves as a model for Huntington's Disease.
Molecule,reduction of apoptosis / neuronal cell death in low serum medium [1],reduction of damage / neuronal cell death by β-amyloid peptide [2],reduction of damage / neuronal cell death by H2O2 [3],theoretical maximum loading of an Afamin molecule (Afamin),protection of glutamine synthetase activity against inactivation by 3NP [4]
"Cc1c(C)c2c(c(C)c1O)CCC(C)(CCCC(C)CCCC(C)CCCC(C)C)O2 [vitamin E, D,L-alpha-tocopherol, reference compound]",capable of reducing the apoptosis,capable of reducing,capable of reducing,18 molecules of vitamin E,
B1,protects against neuronal cell death; also recorded: capable of reducing the apoptosis,protects against neuronal cell death; also recorded: capable of reducing,protects against neuronal cell death; also recorded: capable of reducing,,by far the highest effect of all the tested substances
